Laboratory results as given in patent publication US6376497B1, “Antifungal azole derivatives having a fluorinated vinyl group and process for preparing same” (Korea Research Institute of Chemical Technology, priority 1999, dated 2002).

Legend:
Experiment in all cases: In vitro antifungal activity, microbroth dilution MIC
Format in all cases: cell-based
[1] = tested on: Cryptococcus neoformans B. 42419; settings: 4 to 48 hours; for Minimal inhibitory concentration (MIC): Cry. neoformans B. 42419, RPMI-1640, 35° C.
Outline: (§1)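 Broth microdilution adapted from NCCLS M27, in RPMI-1640 with 0.165 M MOPS, pH 7.0. Yeast or mould inoculum at 2×10^3 CFU/ml was mixed 1:1 with DMSO-derived compound solutions (200 to 0.10 μg/ml before mixing) and incubated at 35 °C for 4 to 48 h. MIC was the concentration showing no growth.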

[2] = tested on: Aspergillus niger A. 16404; settings: 4 to 48 hours; for Minimal inhibitory concentration (MIC): A. niger A. 16404, RPMI-1640, 35° C.
Outline: as §1

[3] = tested on: Candida tropicalis A. 13803; settings: 4 to 48 hours; for Minimal inhibitory concentration (MIC): C. tropicalis A. 13803, RPMI-1640, 35° C.
Outline: as §1

Candida albicans C1-2 = settings: 4 to 48 hours; for Minimal inhibitory concentration (MIC): C. albicans C1-2, RPMI-1640, 35° C.
Outline: as §1

[4] = tested on: Cryptococcus neoformans IFM. 40092; settings: 4 to 48 hours; for Minimal inhibitory concentration (MIC): Cry. neoformans IFM. 40092, RPMI-1640, 35° C.
Outline: as §1

[5] = tested on: Trichophyton mentagrophytes A. 9129; settings: 4 to 48 hours; for Minimal inhibitory concentration (MIC): T. mentagrophytes A. 9129, RPMI-1640, 35° C.
Outline: as §1

[6] = tested on: Candida albicans A. 10231; settings: 4 to 48 hours; for Minimal inhibitory concentration (MIC): C. albicans A. 10231, RPMI-1640, 35° C.
Outline: as §1

[7] = tested on: Candida albicans IFO. 1385; settings: 4 to 48 hours; for Minimal inhibitory concentration (MIC): C. albicans IFO. 1385, RPMI-1640, 35° C.
Outline: as §1

[8] = tested on: Candida parapsitosis A. 7330; settings: 4 to 48 hours; for Minimal inhibitory concentration (MIC): C. parapsitosis A. 7330, RPMI-1640, 35° C.
Outline: as §1

Candida krusei K. 11655 = settings: 4 to 48 hours; for Minimal inhibitory concentration (MIC): C. krusei K. 11655, RPMI-1640, 35° C.
Outline: as §1

[9] = tested on: Torulopsis glabrata B. 16205; settings: 4 to 48 hours; for Minimal inhibitory concentration (MIC): T. glabrata B. 16205, RPMI-1640, 35° C.
Outline: as §1

[10] = tested on: Aspergillus furnigatus B. 19119; settings: 4 to 48 hours; for Minimal inhibitory concentration (MIC): A furnigatus B. 19119, RPMI-1640, 35° C.
Outline: as §1

[11] = tested on: Cryptococcus neoformans A. 34144; settings: 4 to 48 hours; for Minimal inhibitory concentration (MIC): Cry. neoformans A. 34144, RPMI-1640, 35° C.
Outline: as §1

[12] = tested on: Candida pseudotropicalis K. 11658; settings: 4 to 48 hours; for Minimal inhibitory concentration (MIC): C. pseudotropicalis K. 11658, RPMI-1640, 35° C.
Outline: as §1

[13] = tested on: Trichophyton mentagrophytes B. 32663; settings: 4 to 48 hours; for Minimal inhibitory concentration (MIC): T. mentagrophytes B. 32663, RPMI-1640, 35° C.
Outline: as §1

[14] = RPMI-1640, 35° C., no growth observed

Compound	Minimal inhibitory concentration (MIC) [1] [µg/mL]	Minimal inhibitory concentration (MIC) [2] [µg/mL]	Minimal inhibitory concentration (MIC) [3] [µg/mL]	Minimal inhibitory concentration (MIC) (Candida albicans C1-2) [µg/mL]	Minimal inhibitory concentration (MIC) [4]	Minimal inhibitory concentration (MIC) [5] [µg/mL]	Minimal inhibitory concentration (MIC) [6] [µg/mL]	Minimal inhibitory concentration (MIC) [7] [µg/mL]	Minimal inhibitory concentration (MIC) [8] [µg/mL]	Minimal inhibitory concentration (MIC) (Candida krusei K. 11655) [µg/mL]	Minimal inhibitory concentration (MIC) [9] [µg/mL]	Minimal inhibitory concentration (MIC) [10] [µg/mL]	Minimal inhibitory concentration (MIC) [11] [µg/mL]	Minimal inhibitory concentration (MIC) [12] [µg/mL]	Minimal inhibitory concentration (MIC) [13] [µg/mL]	also measured
FC(Oc1ccc(OCC2COC(Cn3cncn3)(c3ccc(Cl)cc3Cl)O2)cc1)=C(c1ccc(F)cc1)C(F)(F)F (mixture of isomers) [Ex. 123]	–	–	–	–	–	–	–	–	–	–	–	–	–	–	–	Minimal inhibitory concentration(MIC), Cry. neoformans B. 42419 [1, 14]: 1.56 µg/mL; Minimal inhibitory concentration(MIC), A. niger A. 16404 [2, 14]: >100 µg/mL; Minimal inhibitory concentration(MIC), C. tropicalis A. 13803 [3, 14]: 100 µg/mL; Minimal inhibitory concentration(MIC), C. albicans C1-2 (Candida albicans C1-2; [14]): 12.5 µg/mL; Minimal inhibitory concentration(MIC), Cry. neoformans IFM. 40092 [4, 14]: 0.39 µg/mL; Minimal inhibitory concentration(MIC), T. mentagrophytes A. 9129 [5, 14]: 6.25 µg/mL; Minimal inhibitory concentration(MIC), C. albicans A. 10231 [6, 14]: 25.0 µg/mL; Minimal inhibitory concentration(MIC), C. albicans IFO. 1385 [7, 14]: 1.56 µg/mL; Minimal inhibitory concentration(MIC), C. parapsitosis A. 7330 [8, 14]: >100 µg/mL; Minimal inhibitory concentration(MIC), C. krusei K. 11655 (Candida krusei K. 11655; [14]): >100 µg/mL; Minimal inhibitory concentration(MIC), T. glabrata B. 16205 [9, 14]: 50.0 µg/mL; Minimal inhibitory concentration(MIC), A furnigatus B. 19119 [10, 14]: >100 µg/mL; Minimal inhibitory concentration(MIC), Cry. neoformans A. 34144 [11, 14]: 1.56 µg/mL; Minimal inhibitory concentration(MIC), C. pseudotropicalis K. 11658 [12, 14]: 25.0 µg/mL; Minimal inhibitory concentration(MIC), T. mentagrophytes B. 32663 [13, 14]: 3.13 µg/mL
FC(OCC1COC(Cn2ccnc2)(c2ccc(F)cc2F)O1)=C(c1cccs1)C(F)(F)F (mixture of isomers) [Ex. 68]	0.78	12.5	50.0	12.5	≦0.10 μg/ml	1.56	6.25	0.78	>100	50.0	3.13	1.56	1.56	25.0	1.56	–
Cc1ccc(C=C(F)OCC2COC(Cn3ccnc3)(c3ccc(F)cc3F)O2)cc1 (mixture of isomers) [Ex. 38]	1.56	50.0	25.0	12.5	0.20 µg/mL	6.25	12.5	0.39	12.5	25.0	6.25	12.5	1.56	12.5	1.56	–
(E&Z) 1-{4-[cis-2-(2,4-dichlorophenyl)-2-(1H-1-imidazolylmethyl)-1,3-dioxolan-4-ylmethoxy]-phenoxy}-1,3,3,3-tetrafluoro-2-phenyl-1-propene [Example 19]	0.78	3.13	25.0	6.25	0.20 µg/mL	1.56	6.25	0.78	>100	50.0	3.13	1.56	1.56	25.0	0.78	–
Cc1cccc(C=C(F)OCC2COC(Cn3ccnc3)(c3ccc(F)cc3F)O2)c1 (mixture of isomers) [Ex. 37]	6.25	>100	>100	25.0	0.78 µg/mL	50.0	25.0	3.13	>100	>100	6.25	>100	3.13	>100	25.0	–
